# Measurements taken from US20140030346A1, “DISINTEGRABLE CORE PARTICLE FOR PHARMACEUTICAL PREPARATION” (priority 2010, published 2014).
# Legend:
# [1] = Dissolution test, ibuprofen (paddle method, JP second fluid pH 6.8); assay type: physicochemical; conditions: JP second fluid pH 6.8, 37° C., 75 rpm
# Procedure: (§1) Dissolution tests were carried oat, according to the procedures shown in Tables 6 to 8 and described below, on pharmaceutical preparations composed of the drug-containing particles obtained in Examples 11 and 12. The results are shown in Tables 9 and 10 and in FIGS. 14 and 15.
# The liquid sampled in the dissolution test is used directly as the sample solution. Analysis according to “2.01 Liquid Chromatography” is carried out on this sample solution. Testing of the ibuprofen content in the sample solution is carried out under the conditions indicated in (1) above.
# In a separate operation, 25 mg of ibuprofen reference is precisely weighed out and dissolved in acetonitrile while bringing the volume up to exactly 50 mL. Next, 5 mL of this solution is precisely measured out and JP second fluid is added so as to bring the volume up to exactly 25 mL, thereby giving a reference solution (about 100 ppm). In a separate operation, 5 mL of this solution is precisely measured out and JP second fluid is added so as to bring the volume up to 50 mL, thereby giving a 50 ppm reference solution. Next, 10 mL of this solution is precisely measured out and JP second fluid is added so as to bring the volume up to exactly 25 mL, thereby giving a […] reference solution. Liquid chromatography is carried out on these reference solutions, and the slopes (a) and intercepts (t) of the straight lines obtained by plotting the peak areas and concentrations of the ibuprofen references are determined. The dissolution rate is determined by entering the content B in the sample solution into the following formula: […]
# [2] = Dissolution test, rabeprazole (paddle method, tris buffer pH 8.0); assay type: physicochemical; conditions: tris buffer pH 8.0, 37° C., 50 rpm
# Procedure: as §1
# First, 20 mg of rabeprazole sodium is precisely weighed cut and dissolved by adding 30 mL of an aqueous NaOH solution (0.5 M), after which 45 mL of methanol is added, then the volume is brought up to exactly 100mL with a water-methanol solution (2:3). Two mL of this solution is precisely measured out and brought up to exactly 100 mL with a water-methanol solution (2:3), thereby giving a 4 ppm reference solution. In a separate procedure, 2 mL of the same solution is precisely measured out and brought up to a volume of exactly 200 mL with a water-methanol solution (2:3), thereby giving a 2 ppm reference solution. Liquid chromatography is carried on these reference solutions, and the slopes (a) and intercepts (t) of the straight lines obtained by plotting the peak areas and concentrations of rabeprazole are determined.
# One milliliter of an aqueous NaOH solution (0.5 M) is added to 5 mL of the sample solution at each sampling time, and the resulting solution is thoroughly mixed. Next, 4 mL of this solution is precisely measured out, then 2 mL of an aqueous NaOH solution (0.5 M) and 8 mL of methanol are added, following which the volume is brought up to exactly 20 mL with a water-methanol solution (2:3). Liquid chromatography is then carried cut under the conditions described above, and the peak area (Qt) for rabeprazole is determined. Both the reference solutions and the sample solution are used as injection solutions after filtration with a membrane filter having a pore sire of 0.2 μm.
# Dissolution rate (%)=(Qt−t)/a×5×6/5×900/1,000/amount of rabeprazole Na collected (mg)×100
Compound,Dissolution rate ([1]; dissolution time 5 min),Dissolution rate ([1]; dissolution time 10 min),Dissolution rate ([1]; dissolution time 15 min),Dissolution rate ([1]; dissolution time 20 min),Dissolution rate ([1]; dissolution time 30 min),Dissolution rate ([1]; dissolution time 60 min),Dissolution rate ([2]; dissolution time 5 min),Dissolution rate ([2]; dissolution time 10 min),Dissolution rate ([2]; dissolution time 15 min),Dissolution rate ([2]; dissolution time 20 min),Dissolution rate ([2]; dissolution time 30 min),Dissolution rate ([2]; dissolution time 60 min)
"CC(C)Cc1ccc(C(C)C(=O)O)cc1 (stereo not drawn) [IBP-Ref., Ibuprofen]",49.5%,77.3%,83.4%,86.0%,89.6%,95.0%,,,,,,
"COCCCOc1ccnc(C[S+]([O-])c2nc3ccccc3[nH]2)c1C (stereo not drawn) [RBP-Ref., Rabeprazole Na]",,,,,,,78.6%,86.0%,87.1%,87.5%,85.5%,78.4%
